Article PMC2712691, “Bio-Benchmarking of Electronic Nose Sensors” (PLoS ONE, 2009)

Molecular target: T1, dOR35a (Drosophila melanogaster, UniProt Q9V3Q2)
T1 construct: gene Or35a; pIB-DmOr35a transiently expressed in Sf9 cells
T1 sequence (Q9V3Q2 1-409): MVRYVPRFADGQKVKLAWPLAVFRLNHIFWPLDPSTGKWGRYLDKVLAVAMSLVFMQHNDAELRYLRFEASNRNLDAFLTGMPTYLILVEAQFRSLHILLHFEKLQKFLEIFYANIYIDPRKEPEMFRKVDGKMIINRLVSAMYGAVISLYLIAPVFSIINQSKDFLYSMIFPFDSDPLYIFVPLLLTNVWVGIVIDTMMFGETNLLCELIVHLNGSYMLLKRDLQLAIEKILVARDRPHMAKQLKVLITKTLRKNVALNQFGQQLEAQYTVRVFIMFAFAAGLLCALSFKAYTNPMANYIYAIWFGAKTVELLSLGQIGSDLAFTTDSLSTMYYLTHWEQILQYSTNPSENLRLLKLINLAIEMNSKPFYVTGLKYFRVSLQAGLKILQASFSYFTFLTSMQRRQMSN
Experiment: Fluo4 calcium imaging of receptor transiently expressed in Sf9 cells, concentration-response
Assay type: cell-based

SMILES	EC50 [nM]
CCCCCCCCO [1-octanol]	22.7
C=CC(O)CCCCC (centres unmarked) [1-octen-3-ol]	3460
